Among the data in patent publication US8106055B2, “Substituted amide compounds” (Gruenenthal GmbH, priority 2007, dated 2012) are inhibition values, retold here.

What is called inhibition is the drop in the measured response relative to a control, in per cent.

This experiment deals with T1, bradykinin 1 receptor (B1R) of the rat (Rattus norvegicus, UniProt P97583).
T1 construct: expressed in transfected cells; host or cells: CHO K1 cells
T1 sequence (P97583 1-337): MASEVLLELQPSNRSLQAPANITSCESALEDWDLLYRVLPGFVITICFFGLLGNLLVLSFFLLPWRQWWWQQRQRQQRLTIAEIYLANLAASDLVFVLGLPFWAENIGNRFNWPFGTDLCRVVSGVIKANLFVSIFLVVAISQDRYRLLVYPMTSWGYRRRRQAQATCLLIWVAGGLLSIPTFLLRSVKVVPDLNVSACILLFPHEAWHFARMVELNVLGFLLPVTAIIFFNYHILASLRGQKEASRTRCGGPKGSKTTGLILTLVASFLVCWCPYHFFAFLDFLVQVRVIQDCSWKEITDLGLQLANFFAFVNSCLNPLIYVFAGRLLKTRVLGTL
Kind of experiment: Functional investigation on the rat bradykinin 1 receptor (B1R), Ca2+ FLIPR assay in CHO K1 rB1R cells. Format: cell-based. Conditions: CHO-K1, B1R antagonism rat; test substance 10 μM; Ca2+ FLIPR, CHO K1 rB1R cells; read-out: B1R Ant. r [10 μM] % Inhibition. In short, it runs like this: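 Peak Ca2+-dependent fluorescence in B1R-transfected CHO K1 cells measures antagonism of an EC80 agonist challenge given 10-20 min after compound. Agonist is Lys-Des-Arg9-bradykinin for human, Des-Arg9-bradykinin for rat receptor.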
In the case of `CN(C)C(c1cccs1)C1CCC(CCNC(=O)COC2CCN(S(=O)(=O)c3ccc(F)cc3)C2)CC1` (centres unmarked) [Example 138, N-(2-(4-((dimethylamino)(thiophen-2-yl)methyl)cyclohexyl)ethyl)-2-(1-(4-fluorophenylsulfonyl)pyrrolidin-3-yloxy)acetamide], the inhibition at 10 µM turned out to be 30%.

Take `COc1cc(C)c(S(=O)(=O)N2CCCC(OCC(=O)NCC3CCC(C(c4cccc(F)c4)N(C)C)CC3)C2)c(C)c1C` (centres unmarked) [Example 145, N-((4-((dimethylamino)(3-fluorophenyl)methyl)cyclohexyl)methyl)-2-(1-(4-methoxy-2,3,6-trimethylphenylsulfonyl)piperidin-3-yloxy)acetamide]: the inhibition at 10 µM worked out at 33%.

Regarding `CN(C)C(c1cccs1)C1CCC(CNC(=O)COC2CCCCC2N(C)S(=O)(=O)c2ccc(Cl)c(Cl)c2)CC1` (centres unmarked) [Example 31, 2-(2-(3,4-dichloro-N-methylphenylsulfonamido)cyclohexyloxy)-N-((4-((dimethylamino)(thiophen-2-yl)methyl)cyclohexyl)methyl)acetamide], the inhibition at 10 µM worked out at 11%.

For `CN(C)C(c1cccc(F)c1)C1CCC(NC(=O)COCCN(C)S(=O)(=O)c2ccc(Cl)cc2)CC1` (centres unmarked) [Example 196, 2-(2-(4-chloro-N-methylphenylsulfonamido)ethoxy)-N-(4-((dimethylamino)(3-fluorophenyl)methyl)cyclohexyl)acetamide], the inhibition at 10 µM stood at 27%.

Turning to `Cc1cc(C)c(S(=O)(=O)N2CCC(OCC(=O)NC3CCC(C(c4cccc(F)c4)N(C)C)CC3)C2)c(C)c1` (centres unmarked) [Example 140, N-(4-((dimethylamino)(3-fluorophenyl)methyl)cyclohexyl)-2-(1-(mesitylsulfonyl)pyrrolidin-3-yloxy)acetamide], the inhibition at 10 µM turned out to be 30%.

For the molecule `Cc1ccc(S(=O)(=O)N2CCC(OCC(=O)NC3CCC(C(c4cccc(F)c4)N(C)C)CC3)C2)cc1` (centres unmarked) [Example 167, N-(4-((dimethylamino)(3-fluorophenyl)methyl)cyclohexyl)-2-(1-tosylpyrrolidin-3-yloxy)acetamide], the inhibition at 10 µM stood at 40%.

For `COc1cc(C)c(S(=O)(=O)N2CCN(CCOCC(=O)NC3CCC(C(c4ccccc4)N(C)C)CC3)CC2)c(C)c1C` (centres unmarked) [Example 20, N-(4-((dimethylamino)(phenyl)methyl)cyclohexyl)-2-(2-(4-(4-methoxy-2,3,6-trimethylphenylsulfonyl)piperazin-1-yl)ethoxy)acetamide], the inhibition at 10 µM is -9%.

Turning to `Cc1ccc(S(=O)(=O)N2CCC(OCC(=O)NCC3CCC(C(c4cccc(F)c4)N(C)C)CC3)C2)cc1` (centres unmarked) [Example 185, N-((4-((dimethylamino)(3-fluorophenyl)methyl)cyclohexyl)methyl)-2-(1-tosylpyrrolidin-3-yloxy)acetamide], the inhibition at 10 µM was 28%.

With `CN(C)C(c1cccc(F)c1)C1CCC(NC(=O)COC2CCN(S(=O)(=O)c3cccc(C(F)(F)F)c3)C2)CC1` (centres unmarked) [Example 139, N-(4-((dimethylamino)(3-fluorophenyl)methyl)cyclohexyl)-2-(1-(3-(trifluoromethyl)phenylsulfonyl)pyrrolidin-3-yloxy)acetamide], the inhibition at 10 µM was 21%.

Consider `COc1cc(C)c(S(=O)(=O)N2CCC(OCC(=O)NCCC3CCC(C(c4cccs4)N(C)C)CC3)CC2)c(C)c1C` (centres unmarked) [Example 177, N-(2-(4-((dimethylamino)(thiophen-2-yl)methyl)cyclohexyl)ethyl)-2-(1-(4-methoxy-2,3,6-trimethylphenylsulfonyl)piperidin-4-yloxy)acetamide], for which the inhibition at 10 µM amounted to 45%.

Consider `COc1cc(C)c(S(=O)(=O)N(CCOCC(=O)NC2CCC(C(c3ccccc3)N(C)C)CC2)Cc2ccccc2)c(C)c1C` (centres unmarked) [Example 193, 2-(2-(N-benzyl-4-methoxy-2,3,6-trimethylphenylsulfonamido)ethoxy)-N-(4-((dimethylamino) (phenyl)methyl)cyclohexyl)acetamide], for which the inhibition at 10 µM stood at 6%.

On to `CN(C)C(c1cccc(F)c1)C1CCC(NC(=O)COC2CCN(S(=O)(=O)c3ccc(F)cc3)C2)CC1` (centres unmarked) [Example 172, N-(4-((dimethylamino)(3-fluorophenyl)methyl)cyclohexyl)-2-(1-(4-fluorophenylsulfonyl)pyrrolidin-3-yloxy)acetamide], for which the inhibition at 10 µM was 18%.

`COc1ccc(S(=O)(=O)N(C)CCOCC(=O)NCC2CCC(C(c3ccccc3)N(C)C)CC2)cc1OC` (centres unmarked) [Example 169, 2-(2-(3,4-dimethoxy-N-methylphenylsulfonamido)ethoxy)-N-((4-((dimethylamino)(phenyl)methyl)cyclohexyl)methyl)acetamide]: the inhibition at 10 µM is -15%.

Regarding `CN(C)C(c1cccc(F)c1)C1CCC(NC(=O)COCCN(Cc2ccccc2)S(=O)(=O)c2ccccc2)CC1` (centres unmarked) [Example 175, 2-(2-(N-benzylphenylsulfonamido)ethoxy)-N-(4-((dimethylamino)(3-fluorophenyl)methyl)cyclohexyl)acetamide], the inhibition at 10 µM worked out at 5%.

For `CN(C)C(c1ccccc1)C1CCC(NC(=O)COCCN(C)S(=O)(=O)c2c(F)c(F)c(F)c(F)c2F)CC1` (centres unmarked) [Example 136, N-(4-((dimethylamino)(phenyl)methyl)cyclohexyl)-2-(2-(2,3,4,5,6-pentafluoro-N-methylphenylsulfonamido)ethoxy)acetamide], the inhibition at 10 µM is -2%.

As to `CN(C)C(c1cccs1)C1CCC(NC(=O)COCCN(C)S(=O)(=O)c2cccc(C(F)(F)F)c2)CC1` (centres unmarked) [Example 152, N-(4-((dimethylamino)(thiophen-2-yl)methyl)cyclohexyl)-2-(2-(N-methyl-3-(trifluoromethyl)phenylsulfonamido)ethoxy)acetamide], the inhibition at 10 µM was found to be 4%.

For `CN(C)C(c1cccc(F)c1)C1CCC(NC(=O)COCCN(C)S(=O)(=O)c2c(Cl)cccc2Cl)CC1` (centres unmarked) [Example 171, 2-(2-(2,6-dichloro-N-methylphenylsulfonamido)ethoxy)-N-(4-((dimethylamino)(3-fluorophenyl)methyl)cyclohexyl)acetamide], the inhibition at 10 µM is 43%.

Turning to `COc1ccc(S(=O)(=O)N2CCC(OCC(=O)NC3CCC(C(c4cccs4)N(C)C)CC3)C2)cc1OC` (centres unmarked) [Example 155, 2-(1-(3,4-dimethoxyphenylsulfonyl)pyrrolidin-3-yloxy)-N-(4-((dimethylamino)(thiophen-2-yl)methyl)cyclohexyl)acetamide], the inhibition at 10 µM was found to be 1%.

Regarding `COc1ccc(S(=O)(=O)N2Cc3ccccc3CC2COCC(=O)NCCC2CCC(C(c3cccc(F)c3)N(C)C)CC2)cc1` (centres unmarked) [Example 190, N-(2-(4-((dimethylamino) (3-fluorophenyl)methyl)cyclohexyl)ethyl)-2-((2-(4-methoxyphenylsulfonyl)-1,2,3,4-tetrahydroisoquinolin-3-yl)methoxy)acetamide], the inhibition at 10 µM amounted to 18%.

Regarding `COc1cc(C)c(S(=O)(=O)N2CCC(OCC(=O)NCC3CCC(C(c4ccccc4)N(C)C)CC3)C2)c(C)c1` (centres unmarked) [Example 173, N-((4-((dimethylamino)(phenyl)methyl)cyclohexyl)methyl)-2-(1-(4-methoxy-2,6-dimethylphenylsulfonyl)pyrrolidin-3-yloxy)acetamide], the inhibition at 10 µM came out at 104%.

For `CN(C)C(c1cccc(F)c1)C1CCC(CCNC(=O)COCCN(C)S(=O)(=O)c2cccc(C(F)(F)F)c2)CC1` (centres unmarked) [Example 192, N-(2-(4-((dimethylamino)(3-fluorophenyl)methyl)cyclohexyl)ethyl)-2-(2-(N-methyl-3-(trifluoromethyl)phenylsulfonamido)ethoxy)acetamide], the inhibition at 10 µM was found to be 10%.

In the case of `CN(C)C(c1ccccc1)C1CCC(CNC(=O)COCCN(C)S(=O)(=O)c2c(Cl)cc(Cl)cc2Cl)CC1` (centres unmarked) [Example 14, N-((4-((dimethylamino)(phenyl)methyl)cyclohexyl)methyl)-2-(2-(2,4,6-trichloro-N-methylphenylsulfonamido)ethoxy)acetamide], the inhibition at 10 µM is 40%.

`COc1ccc(S(=O)(=O)N2Cc3ccccc3CC2COCC(=O)NCC2CCC(C(c3cccc(F)c3)N(C)C)CC2)cc1` (centres unmarked) [Example 163, N-((4-((dimethylamino)(3-fluorophenyl)methyl)cyclohexyl)methyl)-2-((2-(4-methoxyphenylsulfonyl)-1,2,3,4-tetrahydroisoquinolin-3-yl)methoxy)acetamide]: the inhibition at 10 µM was found to be 36%.

As for `COc1cc(C)c(S(=O)(=O)N2CCC(CCOCC(=O)NC3CCC(C(c4ccc(F)cc4)N(C)C)CC3)CC2)c(C)c1C` (centres unmarked) [Example 178, N-(4-((dimethylamino)(4-fluorophenyl)methyl)cyclohexyl)-2-(2-(1-(4-methoxy-2,3,6-trimethylphenylsulfonyl)piperidin-4-yl)ethoxy)acetamide], the inhibition at 10 µM was 12%.

For the molecule `CN(C)C(c1cccc(F)c1)C1CCC(CNC(=O)COC2CCCCC2N(C)S(=O)(=O)c2ccc(Cl)c(Cl)c2)CC1` (centres unmarked) [Example 164, 2-(2-(3,4-dichloro-N-methylphenylsulfonamido)cyclohexyloxy)-N-((4-((dimethylamino)(3-fluorophenyl)methyl)cyclohexyl)methyl)acetamide], the inhibition at 10 µM is 17%.

As to `CN(C)C(c1ccccc1)C1CCC(CNC(=O)COCC2CCCN2S(=O)(=O)c2ccc(Cl)c(Cl)c2)CC1` (centres unmarked) [Example 18, 2-((1-(3,4-dichlorophenylsulfonyl)pyrrolidin-2-yl)methoxy)-N-((4-((dimethylamino)(phenyl)methyl)cyclohexyl)methyl)acetamide], the inhibition at 10 µM was 11%.
